From patent publication US20110190269A1, “GAMMA SECRETASE MODULATORS” (priority 2010, published 2011)

Tested on: γ-secretase
Assay: Cellular γ-secretase assay (inhibition of Aβ42 secretion)
Type: cell-based
Conditions: human neuroglioma H4 cells overexpressing human APP, 22 hrs incubation
Procedure, shortened: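 H4 neuroglioma cells overexpressing human APP got a ten-point compound dilution (0.4% DMSO final) for 22 h at 37 °C. Secreted Aβ42 in the supernatant was measured by electrochemiluminescence sandwich immunoassay (capture biotinylated 6E10, detection ruthenylated BAP15). IC50 came from a nonlinear regression fit.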

Row | Compound | EC50 [nM]
1 | COc1cc(Nc2nc3n(n2)C(c2ccc(F)cc2)CN(C)C3)ccc1-n1cnc(C)c1 (stereo not drawn) [Example 124, 5-(4-fluorophenyl)-N-(3-methoxy-4-(4-methyl-1H-imidazol-1-yl)phenyl)-7-methyl-5,6,7,8-tetrahydro-[1,2,4]triazolo[1,5-a]pyrazin-2-amine] | 357
2 | COc1cc(Nc2nc3c(-c4ccc(F)cc4Cl)cc(F)cn3n2)ccc1-n1cnc(C)c1 [Example 86, 8-(2-Chloro-4-fluorophenyl)-6-fluoro-N-(3-methoxy-4-(4-methyl-1H-imidazol-1-yl)phenyl)-[1,2,4]triazolo[1,5-a]pyridin-2-amine] | 143
3 | COc1cc(Nc2nc3ncc(C#N)c(-c4ccccc4)n3n2)ccc1-n1cnc(C)c1 [Example 37, 2-[3-Methoxy-4-(4-methyl-imidazol-1-yl)-phenylamino]-7-phenyl-[1,2,4]triazolo[1,5-a]pyrimidine-6-carbonitrile] | 260
4 | COc1cc(Nc2nc3c(-c4ccc(F)cc4)nccn3n2)ccc1-n1cnc(C)c1 [Example 11, [8-(4-Fluoro-phenyl)-[1,2,4]triazolo[1,5-a]pyrazin-2-yl]-[3-methoxy-4-(4-methyl-imidazol-1-yl)-phenyl]-amine] | 580
5 | COc1cc(Nc2nc3n(n2)CCN(C)C3c2ccc(F)cc2)ccc1-n1cnc(C)c1 (stereo not drawn) [Example 129, 8-(4-fluorophenyl)-N-(3-methoxy-4-(4-methyl-1H-imidazol-1-yl)phenyl)-7-methyl-5,6,7,8-tetrahydro-[1,2,4]triazolo[1,5-a]pyrazin-2-amine] | 300
6 | COc1cc(Nc2nc3c(-c4ccc(F)cc4Cl)cccn3n2)ccc1-c1ccnc(C)c1 [Example 133, [8-(2-Chloro-4-fluoro-phenyl)-[1,2,4]triazolo[1,5-a]pyridin-2-yl]-[3-methoxy-4-(2-methyl-pyridin-4-yl)-phenyl]-amine] | 45
7 | COc1cc(Nc2nc3c(-c4ccc(F)c(C#N)c4)cc(C)cn3n2)ccc1-n1cnc(C)c1 [Example 78, 2-Fluoro-5-(2-(3-methoxy-4-(4-methyl-1H-imidazol-1-yl)phenylamino)-6-methyl-[1,2,4]triazolo[1,5-a]pyridin-8-yl)benzonitrile] | 27
8 | COc1cc(Nc2nc3c(-c4ccc(F)cc4Cl)cccn3n2)cc(F)c1-n1cnc(C)c1 [Example 112, 8-(2-chloro-4-fluorophenyl)-N-(3-fluoro-5-methoxy-4-(4-methyl-1H-imidazol-1-yl)phenyl)-[1,2,4]triazolo[1,5-a]pyridin-2-amine] | 46
9 | COc1cc(Nc2nc3n(n2)C(c2ccc(F)cc2)CCC3)ccc1-n1cnc(C)c1 (stereo not drawn) [Example 2, [5-(4-Fluoro-phenyl)-5,6,7,8-tetrahydro-[1,2,4]triazolo[1,5-a]pyridin-2-yl]-[3-methoxy-4-(4-methyl-imidazol-1-yl)-phenyl]-amine] | 320
10 | COc1cc(Nc2nc3c(-c4ccc(F)cc4)cccn3n2)ccc1-n1cnc(C)c1 [Example 10, [8-(4-Fluoro-phenyl)-[1,2,4]triazolo[1,5-a]pyridin-2-yl]-[3-methoxy-4-(4-methyl-imidazol-1-yl)-phenyl]-amine] | 60
11 | COc1cc(Nc2nc3n(n2)CCCC3c2ccc(F)cc2)ccc1-n1cnc(C)c1 (single isomer, unassigned) [Example 52] | 280
12 | COc1cc(Nc2nc3nc(C(F)(F)F)cc(-c4ccco4)n3n2)ccc1-n1cnc(C)c1 [Example 24, (7-Furan-2-yl-5-trifluoromethyl-[1,2,4]triazolo[1,5-a]pyrimidin-2-yl)-[3-methoxy-4-(4-methyl-imidazol-1-yl)-phenyl]-amine] | 592
13 | COc1cc(Nc2nc3nc(C)cc(-c4ccccc4)n3n2)ccc1-n1cnc(C)c1 [Example 18, [3-Methoxy-4-(4-methyl-imidazol-1-yl)-phenyl]-(5-methyl-7-phenyl-[1,2,4]triazolo[1,5-a]pyrimidin-2-yl)-amine acetate] | 129
14 | COc1cc(Nc2nc3c(-c4ccc(F)cc4F)cc(C)cn3n2)ccc1-n1cnc(C)c1 [Example 74, 8-(2,4-Difluorophenyl)-N-(3-methoxy-4-(4-methyl-1H-imidazol-1-yl)phenyl)-6-methyl-[1,2,4]triazolo[1,5-a]pyridin-2-amine] | 35
15 | COCc1cnc(-c2ccccc2)n2nc(Nc3ccc(-n4cnc(C)c4)c(OC)c3)nc12 [Example 27, [3-Methoxy-4-(4-methyl-imidazol-1-yl)-phenyl]-(8-methoxymethyl-5-phenyl-[1,2,4]triazolo[1,5-c]pyrimidin-2-yl)-amine] | 742
16 | COc1cc(Nc2nc3nccc(-c4ccc(C(F)(F)F)cc4)n3n2)ccc1-n1cnc(C)c1 [Example 36, [3-Methoxy-4-(4-methyl-imidazol-1-yl)-phenyl]-[7-(4-trifluoromethyl-phenyl)-[1,2,4]triazolo[1,5-a]pyrimidin-2-yl]-amine] | 573
17 | COc1cc(Nc2nc3c(-c4cccc(CNC(=O)OC(C)(C)C)c4)cc(C)cn3n2)ccc1-n1cnc(C)c1 [Example 95, tert-Butyl 3-(2-(3-methoxy-4-(4-methyl-1H-imidazol-1-yl)phenylamino)-6-methyl-[1,2,4]triazolo[1,5-a]pyridin-8-yl)benzylcarbamate] | 84

Row | Compound | EC50 [nM]
18 | COc1cc(Nc2nc3cccc(N4CCCC4)n3n2)ccc1-n1cnc(C)c1 [Example 12, [3-Methoxy-4-(4-methyl-imidazol-1-yl)-phenyl]-(5-pyrrolidin-1-yl-[1,2,4]triazolo[1,5-a]pyridin-2-yl)-amine] | 400
19 | COc1cc(Nc2nc3cccc(N4CCOCC4)n3n2)ccc1-n1cnc(C)c1 [Example 30, [3-Methoxy-4-(4-methyl-imidazol-1-yl)-phenyl]-(5-morpholin-4-yl-[1,2,4]triazolo[1,5-a]pyridin-2-yl)-amine] | 247
20 | COc1cc(Nc2nc3c(-c4ccc(Cl)cc4)cccn3n2)ccc1-n1cnc(C)c1 [Example 125, [8-(4-Chloro-phenyl)-[1,2,4]triazolo[1,5-a]pyridin-2-yl]-[3-methoxy-4-(4-methyl-imidazol-1-yl)-phenyl]-amine] | 50
21 | COc1cc(Nc2nc3c(-c4ccc(F)c(C)c4)cc(C)cn3n2)ccc1-n1cnc(C)c1 [Example 76, 8-(4-Fluoro-3-methylphenyl)-N-(3-methoxy-4-(4-methyl-1H-imidazol-1-yl)phenyl)-6-methyl-[1,2,4]triazolo[1,5-a]pyridin-2-amine] | 19
22 | Cc1cn(-c2c(F)cc(Nc3nc4c(-c5ccc(F)cc5Cl)cccn4n3)cc2F)cn1 [Example 111, 8-(2-chloro-4-fluorophenyl)-N-(3,5-difluoro-4-(4-methyl-1H-imidazol-1-yl)phenyl)-[1,2,4]triazolo[1,5-a]pyridin-2-amine] | 29
23 | COc1cc(Nc2nc3c(-c4ccc(Cl)cc4C=O)cc(C)cn3n2)ccc1-n1cnc(C)c1 [Example 91, 5-Chloro-2-(2-(3-methoxy-4-(4-methyl-1H-imidazol-1-yl)phenylamino)-6-methyl-[1,2,4]triazolo[1,5-a]pyridin-8-yl)benzaldehyde] | 310
24 | COc1cc(Nc2nc3c(N4CCC(F)(F)CC4)cccn3n2)ccc1-n1cnc(C)c1 [Example 141, 8-(4,4-difluoropiperidin-1-yl)-N-(3-methoxy-4-(4-methyl-1H-imidazol-1-yl)phenyl)-[1,2,4]triazolo[1,5-a]pyridin-2-amine] | 375
25 | CCCc1nc(C)cc2nc(Nc3ccc(-n4cnc(C)c4)c(C#N)c3)nn12 [Example 4, 2-(4-Methyl-imidazol-1-yl)-5-(7-methyl-5-propyl-[1,2,4]triazolo[1,5-c]pyrimidin-2-ylamino)-benzonitrile] | 1280
26 | COc1cc(Nc2nc3nc(C(F)(F)F)cc(-c4ccc(F)c(Cl)c4)n3n2)ccc1-n1cnc(C)c1 [Example 79, 7-(3-Chloro-4-fluorophenyl)-N-(3-methoxy-4-(4-methyl-1H-imidazol-1-yl)phenyl)-5-(trifluoromethyl)-[1,2,4]triazolo[1,5-a]pyrimidin-2-amine acetate] | 73
27 | COc1cc(Nc2nc3c(-c4ccc(F)c(F)c4F)cc(C4CC4)cn3n2)ccc1-n1cnc(C)c1 [Example 120, [6-Cyclopropyl-8-(2,3,4-trifluoro-phenyl)-[1,2,4]triazolo[1,5-a]pyridin-2-yl]-[3-methoxy-4-(4-methyl-imidazol-1-yl)-phenyl]-amine] | 96
28 | COCc1cnc(C2CCCCC2)n2nc(Nc3ccc(-n4cnc(C)c4)c(OC)c3)nc12 [Example 28, (5-Cyclohexyl-8-methoxymethyl-[1,2,4]triazolo[1,5-c]pyrimidin-2-yl)-[3-methoxy-4-(4-methyl-imidazol-1-yl)-phenyl]-amine] | 1490
29 | COc1cc(Nc2nc3n(n2)CCCC3c2ccc(F)cc2)ccc1-n1cnc(C)c1 (single isomer, unassigned) [Example 51] | 440
30 | COc1ccccc1-c1c(C#N)cnc2nc(Nc3ccc(-n4cnc(C)c4)c(OC)c3)nn12 [Example 70, 2-(3-Methoxy-4-(4-methyl-1H-imidazol-1-yl)phenylamino)-7-(2-methoxyphenyl)-[1,2,4]triazolo[1,5-a]pyrimidine-6-carbonitrile] | 673
31 | COc1cc(Nc2nc3c(N4CCC(F)CC4)cccn3n2)ccc1-n1cnc(C)c1 [Example 139, 8-(4-fluoropiperidin-1-yl)-N-(3-methoxy-4-(4-methyl-1H-imidazol-1-yl)phenyl)-[1,2,4]triazolo[1,5-a]pyridin-2-amine] | 311
32 | COc1cc(Nc2nc3nc(C(F)(F)F)cc(C(F)(F)F)n3n2)ccc1-n1cnc(C)c1 [Example 26, (5,7-Bis-trifluoromethyl-[1,2,4]triazolo[1,5-a]pyrimidin-2-yl)-[3-methoxy-4-(4-methyl-imidazol-1-yl)-phenyl]-amine] | 312
33 | Cc1cn(-c2ccc(Nc3nc4c(-c5ccc(F)cc5Cl)cccn4n3)cc2F)cn1 [Example 110, 8-(2-chloro-4-fluorophenyl)-N-(3-fluoro-4-(4-methyl-1H-imidazol-1-yl)phenyl)-[1,2,4]triazolo[1,5-a]pyridin-2-amine] | 29
